In US20250138013A1, “SMALL MOLECULE INHIBITOR TARGETING A LEUKEMIC STEM CELL ASSOCIATED GENE FOR HIGH-RISK AML PATIENTS” (The Chinese University of Hong Kong, priority 2023, published 2025):
Entries after “also recorded” stand apart in the source; their conditions may differ.

Legend:
KG1a cells = assay: Cell Titer-GLO cell viability assay, KG1a; assay type: cell-based
Experimental: (§1) The SMI is initially tested with increasing doses for its effect upon cell viability in KG1a cells. […] This dose is then tested on GDM1, MOLM13 and OCIAML3 cells.
(§2) Cells are treated with the SMIs and control (DMSO) for 72 hours and their viability is detected using the Cell Titer Glo® assay according to the manufacturer's instructions. Statistical analysis is performed using one-way ANOVA with Tukey's multiple comparisons test with Mean+SD of at least 2 independent experiments.
(§3) Cells are seeded into 96-well plates at a density of approximately 2×10^5 cells/ml and drugs are added at indicated concentrations. Cell viability is measured at indicated time points using Cell Titer-GLO® Luminescent Cell Viability Assay. For assessment of gene expression after drug treatment, cells are seeded in 6-well plates at approximately 4×10^5 cells/ml and drugs are added at indicated doses. RNA and/or protein is extracted 72 hours later. qPCR and Western Blot are then performed according to standard procedures to detect target gene and protein expression.

GDM1 cells = assay: Cell Titer-GLO cell viability assay, GDM1; assay type: cell-based; conditions: GDM1 (SPINK2high), 150 μM for 72 hours
Experimental: as §1, §2, §3

[1] = test system: SPINK2^high cells (KG1a and GDM1) vs. SPINK2^low cells (OCIAML3 and MOLM13); assay: Cytotoxicity compared between SPINK2high and SPINK2low cell lines (Cell Titer Glo); assay type: cell-based; conditions: 72 h treatment, compared with SMI-2
Experimental: as §2, §3

[2] = test system: SPINK2 protein expression in KG1a cells; assay: Western blot of SPINK2 protein after SMI treatment, KG1a; assay type: cell-based
Experimental: as §1
(§4) Cells are harvested, washed in Phosphate-buffered saline (PBS) and lysed using Pierce™ IP Lysis Buffer. Protein concentration is measured using Pierce™ BCA Protein Assay Kit. Approximately 30 μg of whole cell lysates are mixed with 4× Laemmli Buffer and β-mercaptoethanol and denatured for 5 minutes at 95° C. Lysates are equally loaded onto and separated using freshly prepared polyacrylamide gels. Proteins are transferred onto 0.2 μm Immun-Blot® PVDF membranes using FLASHBlot transfer buffer. The membranes are then blocked for one hour at room temperature with 5% non-fat dry milk in TBS Tween™ 20 Buffer. This is followed by incubation with primary antibodies diluted in 5% bovine serum albumin (BSA) at 4° C. overnight. Primary antibody dilutions are as follows: SPINK2 (1:1000), ALCAM (1:10000), β-ACTIN (1:10000), GAPDH (1:2500). […]
(§5) Cells are seeded into 96-well plates at a density of approximately 2×10^5 cells/ml and drugs are added at indicated concentrations. Cell viability is measured at indicated time points using Cell Titer-GLO® Luminescent Cell Viability Assay. […]

[3] = test system: SPINK2 protein expression in GDM1 cells; assay: Western blot of SPINK2 protein after SMI treatment, GDM1; assay type: cell-based
Experimental: as §1, §4, §5

[4] = test system: SLC7A11 mRNA expression in KG1a cells; assay: qPCR of SPINK2 target gene SLC7A11 after SMI treatment, KG1a; assay type: cell-based
Experimental: as §1, §3

[5] = test system: STEAP3 mRNA expression in KG1a cells; assay: qPCR of SPINK2 target gene STEAP3 after SMI treatment, KG1a; assay type: cell-based
Experimental: as §1, §3

[6] = Solubility in DMSO and other solvents; assay type: physicochemical
Text: In another embodiment, the SMI is screened via a structure-based virtual screening (SBVS) and selected from a group of bioactive molecules due to its efficient binding affinity based on its idock scores and its capacity to dissolve in at least one solvent selected from a group comprising of dimethyl sulfoxide (DMSO), water, ethanol or dimethylformamide (DMF).
To identify potential SPINK2-SMIs, Structure-based Virtual Screening (SBVS) is initially employed for in silico screening of a small-molecule library comprising 1.5 million compounds to identify bioactive molecules that bind to the targeting domain of SPINK2 (FIG. 16A).

[7] = test system: SLC7A11 mRNA expression in MOLM13-EV and MOLM13-SPINK2 cells; assay: qPCR of SLC7A11 after Nutlin-3a in MOLM13-EV and MOLM13-SPINK2 cells; assay type: cell-based; conditions: Nutlin-3a 1 μM, 48 hours and 72 hours
Experimental: Previously, p53 transcriptionally represses SLC7A11 expression, thereby playing an important pro-ferroptotic role. The data has shown that p53 pathway genes are inversely affected upon SPINK2 modulation (Tables S11 & S12). Based on the hypothesis that SPINK2 overexpression in MOLM13 cells might counteract the p53-mediated repression of SLC7A11, MOLM13-EV and MOLM13-SPINK2 cells are treated with the p53 activator, Nutlin-3a (1 μM), for 48 hours and 72 hours. […] Of note, the effects of Nutlin-3a could not be tested in KG1a cells, since they have a TP53 mutation which renders them insensitive to Nutlin-3a activity.
GFP-labelled lentiviruses are used for assessing the biological significance of SPINK2 in AML by overexpressing SPINK2 in OCIAML3 and MOLM13 cells (pRSC—SFFV-SPINK2-E2A-Puro-E2A-GFP-Wpre) and empty vector, EV (pRSC—SFFV-Puro-E2A-GFP-wpre) are provided. Transduction is performed in approximately 2×10^5 cells/ml at a multiplicity of infection (MOI) of 20 using Retronectin®-coated 6-well plates according to the manufacturer's instructions (Takara Bio Inc.) This is followed by puromycin selection (1 μg/ml) for at least seven days. Functional studies are then performed on cells as described and extra cells are cryopreserved.

SMILES	cytotoxicity at 150 µM (KG1a cells; Homo sapiens, KG-1a, KG1a cells, 150 μM, 72nd hour, read-out: reduction of cell viability)	effect on cell viability (KG1a cells; KG1a (SPINK2high), 150 μM for 72 hours)	effect on cell viability (GDM1 cells)	toxicity/specificity against SPINK2high vs SPINK2low cells [1]	toxicity/specificity against SPINK2high vs SPINK2low cells ([1]; listed as SMI-5)	SPINK2 protein expression [2]	SPINK2 protein expression [3]	SLC7A11 mRNA expression [4]	STEAP3 mRNA expression [5]	solubility in DMSO [6]	SLC7A11 mRNA expression [7]
C[C@]12C(=O)N(c3cccc(C(=O)O)c3)C(=O)[C@H]1C1c3ccccc3C2c2ccccc21 [SMI, 3-[(15R,19S)-15-methyl-16,18-dioxo-17-azapentacyclo [6.6.5.02,7.09, 14.015,19]nonadeca-2,4,6,9,11,13-hexaen-17-yl]benzoic acid]	~50%	significantly decreased cell viability	significantly decreased cell viability	selectively decreased viability	greater toxicity; also recorded: greater specificity	decreased	decreased	downregulation	upregulation	soluble in DMSO	–
COc1ccc(C2=N[C@@H](c3ccc(Cl)cc3)[C@@H](c3ccc(Cl)cc3)N2C(=O)N2CCNC(=O)C2)c(OC(C)C)c1 [Nutlin-3a]	–	–	–	–	–	–	–	–	–	–	reduced in MOLM13-EV cells to a significantly greater extent than in MOLM13-SPINK2 cells
